# Measurements: patent US9353082B2, “Pharmaceutical compounds” (BIAL—PORTELA & CA, S.A., priority 2008, dated 2016)
# Target: T1, FAAH (Rattus norvegicus, UniProt P97612)
# T1 construct: Frozen brains (without cerebellum) from Wistar rats were used; from tissue; host or cells: Wistar rat brain (without cerebellum), washed membrane pellets
# T1 sequence (P97612 1-579): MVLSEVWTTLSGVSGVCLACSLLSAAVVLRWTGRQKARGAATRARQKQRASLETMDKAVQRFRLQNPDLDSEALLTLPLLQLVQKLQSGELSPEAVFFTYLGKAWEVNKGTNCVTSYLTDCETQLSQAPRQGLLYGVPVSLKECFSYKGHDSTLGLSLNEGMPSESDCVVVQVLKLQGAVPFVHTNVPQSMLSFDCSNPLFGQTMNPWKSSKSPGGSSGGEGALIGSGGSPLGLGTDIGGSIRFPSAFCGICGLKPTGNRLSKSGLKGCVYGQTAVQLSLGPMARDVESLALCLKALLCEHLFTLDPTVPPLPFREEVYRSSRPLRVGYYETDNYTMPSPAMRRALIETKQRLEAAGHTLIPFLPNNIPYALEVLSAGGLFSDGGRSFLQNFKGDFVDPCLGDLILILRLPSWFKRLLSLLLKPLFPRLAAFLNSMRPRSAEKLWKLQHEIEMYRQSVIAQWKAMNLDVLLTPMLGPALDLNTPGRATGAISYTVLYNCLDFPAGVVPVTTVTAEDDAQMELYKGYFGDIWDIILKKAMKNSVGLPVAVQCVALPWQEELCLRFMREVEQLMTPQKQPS
# Assay: In vitro FAAH activity in rat brain membranes, 3H-AEA substrate, % of control
# Format: biochemical, Wistar rats
# Conditions: low value = strong inhibitor; for In Vitro FAAH activity, 100 nM: 100 nM test compound; for In Vitro FAAH activity, 10 uM: 10 uM test compound
# In short: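 FAAH activity measured as 3H-ethanolamine released from 2 μM [3H]AEA over 10 min by rat brain membrane preparation, after 15 min 37 °C preincubation with test compound at 10 or 0.1 μM. Charcoal-separated supernatant scintillation-counted; values expressed as % of control minus no-protein blank.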
Compound,"In Vitro FAAH activity, 100 nM","In Vitro 100 nM (FAAH activity, % of control) (rat brain membranes, compound at 100 nM)","In Vitro FAAH activity, 10 uM"
"O=C(N1CCc2ccccc2C1)n1cnc(-c2ccc(Cl)cc2)n1 [Compound 185, (3-(4-chlorophenyl)-1H-1,2,4-triazol-1-yl)(3,4-dihydroisoquinolin-2(1H)-yl)methanone]",71.8 % of control,,
"CN(C(=O)n1cnc(-c2ccc(Cl)cc2)c1)C1CCCCC1 [Compound 277, 4-(4-chlorophenyl)-N-cyclohexyl-N-methyl-1H-imidazole-1-carboxamide]",,72.1 % of control,
"CN(C(=O)n1nnc2cc(-c3cccc(C(N)=O)c3)ccc21)C1CCCCC1 [Compound 108, 5-(3-carbamoylphenyl)-N-cyclohexyl-N-methyl-1H-benzo[d][1,2,3]triazole-1-carboxamide]",7.4 % of control,,
"CN(C(=O)n1nnc2ccc(-c3ccc(F)cc3)cc21)C1CCCCC1 [Compound 106, N-cyclohexyl-6-(4-fluorophenyl)-N-methyl-1H-benzo[d][1,2,3]triazole-1-carboxamide]",2.3 % of control,,
"CN(C(=O)n1cnc(-c2ccccc2F)c1)c1ccc(F)cc1 [Compound 45, 4-(2-fluorophenyl)-N-(4-fluorophenyl)-N-methyl-1H-imidazole-1-carboxamide]",83 % of control,,
"O=C(N1CCOCC1)n1cnc(-c2ccccc2)n1 [Compound 73, morpholino(3-phenyl-1H-1,2,4-triazol-1-yl)methanone]",85.8 % of control,,
"CCOC(=O)C1CCN(C(=O)n2nnc3ccccc32)CC1 [Compound 176, ethyl 1-(1H-benzo[d][1,2,3]triazole-1-carbonyl)piperidine-4-carboxylate]",0.2 % of control,,
"COc1ccc2c(ccn2C(=O)N2CCOCC2)c1 [Compound 47, (5-methoxy-1H-indol-1-yl)(morpholino)methanone]",97.2 % of control,,
"CN(C(=O)n1ccnc1)c1ccccc1 [Compound 2, N-methyl-N-phenyl-1H-imidazole-1-carboxamide]",,,11.7 % of control
"CN(C(=O)n1cccn1)c1ccccc1 [Compound 8, N-methyl-N-phenyl-1H-pyrazole-1-carboxamide]",,,13.2 % of control
"O=C(N1CCN(c2ccccc2)CC1)n1cnc(-c2cccc3ccccc23)n1 [Compound 206, (3-(naphthalen-1-yl)-1H-1,2,4-triazol-1-yl)(4-phenylpiperazin-1-yl)methanone]",3.3 % of control,,
"CN(C)C(=O)n1cnc(-c2ccc(Oc3ccc(C#N)cc3)cc2)n1 [Compound 140, 3-(4-(4-cyanophenoxy)phenyl)-N,N-dimethyl-1H-1,2,4-triazole-1-carboxamide]",58.6 % of control,,
"CC1(C)COCN1C(=O)n1c(Cl)nc(-c2ccc(Cl)cc2)c1Cl [Compound 269, (2,5-dichloro-4-(4-chlorophenyl)-1H-imidazol-1-yl)(4,4-dimethyloxazolidin-3-yl)methanone]",106.2 % of control,,
"CN(C(=O)n1cnc2ccccc21)c1ccccc1 [Compound 18, N-methyl-N-phenyl-1H-benzo[d]imidazole-1-carboxamide]",,,67.9 % of control
"COc1ccccc1-c1cn(C(=O)N(C)C2CCCCC2)cn1 [Compound 271, N-cyclohexyl-4-(2-methoxyphenyl)-N-methyl-1H-imidazole-1-carboxamide]",55.8 % of control,,
"O=C(N1CCCCCC1)n1nnc2ccccc21 [Compound 172, azepan-1-yl(1H-benzo[d][1,2,3]triazol-1-yl)methanone]",0.3 % of control,,
"CN(Cc1ccccc1)C(=O)n1cnc(-c2ccc3ccccc3c2)n1 [Compound 190, N-benzyl-N-methyl-3-(naphthalen-2-yl)-1H-1,2,4-triazole-1-carboxamide]",20.7 % of control,,
"CN(C(=O)n1cnc(-c2ccc(O)cc2)c1)c1ccccc1 [Compound 38, 4-(4-hydroxyphenyl)-N-methyl-N-phenyl-1H-imidazole-1-carboxamide]",83.9 % of control,,0 % of control
"O=C(N1CCC2(CC1)OCCO2)n1cnc(-c2ccc(Cl)c(Cl)c2)c1 [Compound 198, (4-(3,4-dichlorophenyl)-1H-imidazol-1-yl)(1,4-dioxa-8-azaspiro[4.5]decan-8-yl)methanone]",33 % of control,,
CN(C(=O)n1cnc(-c2ccccc2)c1)C12CC3CC(CC(C3)C1)C2 [Compound 229],99.2 % of control,,
"CC(C)(C)N(Cc1ccccc1)C(=O)n1cnc(-c2ccc(Cl)cc2)c1 [Compound 252, N-benzyl-N-tert-butyl-4-(4-chlorophenyl)-1H-imidazole-1-carboxamide]",83.6 % of control,,
"O=C(Nc1ccccc1)n1ccc(-c2ccccc2)n1 [Compound 5, N,3-diphenyl-1H-pyrazole-1-carboxamide]",,,91.3 % of control
"CN(Cc1ccc2ccccc2c1)C(=O)n1nnc2ccccc21 [Compound 131, N-methyl-N-(naphthalen-2-ylmethyl)-1H-benzo[d][1,2,3]triazole-1-carboxamide]",0 % of control,,
"O=C(N1CCCC1)n1nnc2ccccc21 [Compound 98, (1H-benzo[d][1,2,3]triazol-1-yl)(pyrrolidin-1-yl)methanone]",0.6 % of control,,
"Br.CN(C(=O)n1cnc(-c2ccc(OCCN3CCCCC3)cc2)c1)c1ccccc1 [Compound 224, N-methyl-N-phenyl-4-(4-(2-(piperidin-1-yl)ethoxy)phenyl)-1H-imidazole-1-carboxamide hydrobromide]",90 % of control,,
"NC(=O)c1ccc(Oc2cccc(-c3ncn(C(=O)N4CCOCC4)n3)c2)cc1 [Compound 210, 4-(3-(1-(morpholine-4-carbonyl)-1H-1,2,4-triazol-3-yl)phenoxy)benzamide]",73.3 % of control,,
"CC1OCCN1C(=O)n1cnc(-c2ccccc2)c1 (centres unmarked) [Compound 227, (2-methyloxazolidin-3-yl)(4-phenyl-1H-imidazol-1-yl)methanone]",64.7 % of control,,
"O=C(N1CCOCC1)n1cnc(-c2ccc(Cl)cc2)n1 [Compound 68, (3-(4-chlorophenyl)-1H-1,2,4-triazol-1-yl)(morpholino)methanone]",73.5 % of control,,
"CN(C(=O)n1cnc(-c2ccc(-c3ccccc3)cc2)c1)c1ccccc1 [Compound 35, 4-(biphenyl-4-yl)-N-methyl-N-phenyl-1H-imidazole-1-carboxamide]",,,103.1 % of control
"CN(C(=O)n1cnc(-c2ccccc2F)c1)c1ccccc1 [Compound 30, 4-(2-fluorophenyl)-N-methyl-N-phenyl-1H-imidazole-1-carboxamide]",72.5 % of control,,0.1 % of control
